# Measured values: PubChem BioAssay (NCI)
#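 Following 48 hours of exposure in 96-well plates, responses at five concentrations were used to interpolate endpoints linearly. TGI: total growth inhibition.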
# Tested on: DLD-1 colon
# Test: NCI-60 cell line screen, 48 h
row,Compound,TGI [µM]
1,C=C1CCC23CC(CC[C@@H]2[C@@]12C[C@@H](c1ccoc1)OC2=O)OC3=O (stereo not given in full),> 100
2,CCN(CC)CC(=O)O[C@]1(CC)C(=O)OCc2c1cc1n(c2=O)Cc2cc3ccccc3nc2-1,> 100
3,COc1ccc(-c2cc(=O)c3ccccc3[nH]2)c(OC)c1,> 100
4,CCOC(=O)C(Cc1cn(S(=O)(=O)c2ccccc2)c2ccccc12)(NC(C)=O)C(=O)OCC,> 100

# Tested on: DMS 114 small cell lung
# Test: NCI-60 cell line screen, 48 h
row,Compound,TGI [µM]
1,C=C1CCC23CC(CC[C@@H]2[C@@]12C[C@@H](c1ccoc1)OC2=O)OC3=O (stereo not given in full),> 100
2,CCN(CC)CC(=O)O[C@]1(CC)C(=O)OCc2c1cc1n(c2=O)Cc2cc3ccccc3nc2-1,0.362
3,COc1ccc(-c2cc(=O)c3ccccc3[nH]2)c(OC)c1,> 100
4,Cc1ccc(S(=O)(=O)OC(c2ccc(Cl)cc2Cl)C2OC(=O)c3ccccc32)cc1 (stereo not given),> 100
5,CCOC(=O)C(Cc1cn(S(=O)(=O)c2ccccc2)c2ccccc12)(NC(C)=O)C(=O)OCC,80.4

# Tested on: DMS 273 small cell lung
# Test: NCI-60 cell line screen, 48 h
row,Compound,TGI [µM]
1,C=C1CCC23CC(CC[C@@H]2[C@@]12C[C@@H](c1ccoc1)OC2=O)OC3=O (stereo not given in full),> 100
2,CCN(CC)CC(=O)O[C@]1(CC)C(=O)OCc2c1cc1n(c2=O)Cc2cc3ccccc3nc2-1,0.0304
3,COc1ccc(-c2cc(=O)c3ccccc3[nH]2)c(OC)c1,> 100
4,Cc1ccc(S(=O)(=O)OC(c2ccc(Cl)cc2Cl)C2OC(=O)c3ccccc32)cc1 (stereo not given),> 100
5,CCOC(=O)C(Cc1cn(S(=O)(=O)c2ccccc2)c2ccccc12)(NC(C)=O)C(=O)OCC,> 100

# Tested on: HOP-18 NSCLC
# Test: NCI-60 cell line screen, 48 h
row,Compound,TGI [µM]
1,C=C1CCC23CC(CC[C@@H]2[C@@]12C[C@@H](c1ccoc1)OC2=O)OC3=O (stereo not given in full),> 100
2,CCN(CC)CC(=O)O[C@]1(CC)C(=O)OCc2c1cc1n(c2=O)Cc2cc3ccccc3nc2-1,> 100

# Tested on: KM20L2 colon
# Test: NCI-60 cell line screen, 48 h
row,Compound,TGI [µM]
1,C=C1CCC23CC(CC[C@@H]2[C@@]12C[C@@H](c1ccoc1)OC2=O)OC3=O (stereo not given in full),> 100
2,CCN(CC)CC(=O)O[C@]1(CC)C(=O)OCc2c1cc1n(c2=O)Cc2cc3ccccc3nc2-1,0.887
3,COc1ccc(-c2cc(=O)c3ccccc3[nH]2)c(OC)c1,> 100
4,Cc1ccc(S(=O)(=O)OC(c2ccc(Cl)cc2Cl)C2OC(=O)c3ccccc32)cc1 (stereo not given),> 100
5,CCOC(=O)C(Cc1cn(S(=O)(=O)c2ccccc2)c2ccccc12)(NC(C)=O)C(=O)OCC,> 100

# Tested on: LXFL 529 NSCLC
# Test: NCI-60 cell line screen, 48 h
row,Compound,TGI [µM]
1,C=C1CCC23CC(CC[C@@H]2[C@@]12C[C@@H](c1ccoc1)OC2=O)OC3=O (stereo not given in full),> 100
2,CCN(CC)CC(=O)O[C@]1(CC)C(=O)OCc2c1cc1n(c2=O)Cc2cc3ccccc3nc2-1,3.3
3,COc1ccc(-c2cc(=O)c3ccccc3[nH]2)c(OC)c1,> 100
4,Cc1ccc(S(=O)(=O)OC(c2ccc(Cl)cc2Cl)C2OC(=O)c3ccccc32)cc1 (stereo not given),> 100
5,CCOC(=O)C(Cc1cn(S(=O)(=O)c2ccccc2)c2ccccc12)(NC(C)=O)C(=O)OCC,95.5

# Tested on: M19-MEL melanoma
# Test: NCI-60 cell line screen, 48 h
row,Compound,TGI [µM]
1,C=C1CCC23CC(CC[C@@H]2[C@@]12C[C@@H](c1ccoc1)OC2=O)OC3=O (stereo not given in full),> 100
2,CCN(CC)CC(=O)O[C@]1(CC)C(=O)OCc2c1cc1n(c2=O)Cc2cc3ccccc3nc2-1,0.738
3,COc1ccc(-c2cc(=O)c3ccccc3[nH]2)c(OC)c1,> 100
4,Cc1ccc(S(=O)(=O)OC(c2ccc(Cl)cc2Cl)C2OC(=O)c3ccccc32)cc1 (stereo not given),> 100
5,CCOC(=O)C(Cc1cn(S(=O)(=O)c2ccccc2)c2ccccc12)(NC(C)=O)C(=O)OCC,> 100

# Tested on: XF 498 CNS
# Test: NCI-60 cell line screen, 48 h
row,Compound,TGI [µM]
1,C=C1CCC23CC(CC[C@@H]2[C@@]12C[C@@H](c1ccoc1)OC2=O)OC3=O (stereo not given in full),> 100
2,CCN(CC)CC(=O)O[C@]1(CC)C(=O)OCc2c1cc1n(c2=O)Cc2cc3ccccc3nc2-1,2.19
3,Cc1ccc(S(=O)(=O)OC(c2ccc(Cl)cc2Cl)C2OC(=O)c3ccccc32)cc1 (stereo not given),> 100
4,CCOC(=O)C(Cc1cn(S(=O)(=O)c2ccccc2)c2ccccc12)(NC(C)=O)C(=O)OCC,> 100
